This passage reports IC50 results from ChEMBL document CHEMBL1137827, “Spiroquinazolinones as novel, potent, and selective PDE7 inhibitors. Part 1” (Bioorg Med Chem Lett, 2004).

The target in experiment [1] is T1, cGMP-specific 3',5'-cyclic phosphodiesterase (Homo sapiens, UniProt O76074). Put plainly: In vitro inhibition of human Phosphodiesterase 5.
The target in experiment [2] is T2, cGMP-inhibited 3',5'-cyclic phosphodiesterase 3A (Homo sapiens, UniProt Q14432). Put plainly: In vitro inhibition of human Phosphodiesterase 3A3 expressed in baculovirus infected Sf9 cells.
In experiment [3] the target is T3, High affinity 3',5'-cyclic-AMP phosphodiesterase 7A (Homo sapiens, UniProt Q13946). Put plainly: In vitro inhibition of human Phosphodiesterase 7A1 expressed in baculovirus infected Sf9 cells.
For experiment [4], the target named is T4, 3',5'-cyclic-AMP phosphodiesterase 4D (Homo sapiens, UniProt Q08499). The experiment can be described thus: In vitro inhibition of human Phosphodiesterase 4D3 expressed in baculovirus infected Sf9 cells.
The target in experiment [5] is T5, Phosphodiesterase 1 (Homo sapiens, UniProt P54750+Q01064+Q14123). Put plainly: In vitro inhibition of human Phosphodiesterase 1 partially purified from THP-1 cells.
Experiment [6] addresses T3, High affinity 3',5'-cyclic-AMP phosphodiesterase 7A. Put plainly: Inhibition of human Phosphodiesterase 7A1 expressed in baculovirus infected Sf9 cells.
Experiment [7] has as its target T5, Phosphodiesterase 1. The experiment can be described thus: Inhibition of human Phosphodiesterase 1 partially purified from THP-1 cells. It counts as cell-free.
Experiment [8] addresses T1, cGMP-specific 3',5'-cyclic phosphodiesterase. Put plainly: Inhibition of human Phosphodiesterase 5.
The target of experiment [9] is T2, cGMP-inhibited 3',5'-cyclic phosphodiesterase 3A. The experiment can be described thus: Inhibition of human Phosphodiesterase 3A3 expressed in baculovirus infected Sf9 cells.
Experiment [10] addresses T4, 3',5'-cyclic-AMP phosphodiesterase 4D. The experiment can be described thus: Inhibition of human Phosphodiesterase 4D3 expressed in baculovirus infected Sf9 cells.

Structures are written as SMILES. A value given as a limit tells only on which side of the number the result lay.

T4 sequence (Q08499 whole entry): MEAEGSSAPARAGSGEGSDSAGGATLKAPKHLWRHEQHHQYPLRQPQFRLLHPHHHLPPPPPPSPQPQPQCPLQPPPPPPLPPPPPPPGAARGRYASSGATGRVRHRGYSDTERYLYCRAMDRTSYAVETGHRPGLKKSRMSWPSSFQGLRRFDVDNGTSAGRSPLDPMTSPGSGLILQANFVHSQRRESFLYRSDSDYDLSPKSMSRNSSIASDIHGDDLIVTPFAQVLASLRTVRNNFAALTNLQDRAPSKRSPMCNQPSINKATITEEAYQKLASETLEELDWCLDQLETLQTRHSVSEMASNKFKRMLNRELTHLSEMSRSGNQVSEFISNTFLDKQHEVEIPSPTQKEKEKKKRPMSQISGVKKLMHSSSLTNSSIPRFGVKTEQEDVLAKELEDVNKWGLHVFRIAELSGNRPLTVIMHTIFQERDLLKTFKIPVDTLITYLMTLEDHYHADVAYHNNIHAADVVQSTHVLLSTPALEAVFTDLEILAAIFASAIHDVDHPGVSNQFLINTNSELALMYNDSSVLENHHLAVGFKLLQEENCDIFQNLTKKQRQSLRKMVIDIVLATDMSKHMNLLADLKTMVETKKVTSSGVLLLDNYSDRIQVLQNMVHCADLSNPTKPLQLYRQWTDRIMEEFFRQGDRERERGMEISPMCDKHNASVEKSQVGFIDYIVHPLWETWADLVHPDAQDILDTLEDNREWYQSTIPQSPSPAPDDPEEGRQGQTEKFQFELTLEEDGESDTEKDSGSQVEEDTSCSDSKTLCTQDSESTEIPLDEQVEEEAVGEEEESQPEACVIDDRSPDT
T2 sequence (Q14432 whole entry): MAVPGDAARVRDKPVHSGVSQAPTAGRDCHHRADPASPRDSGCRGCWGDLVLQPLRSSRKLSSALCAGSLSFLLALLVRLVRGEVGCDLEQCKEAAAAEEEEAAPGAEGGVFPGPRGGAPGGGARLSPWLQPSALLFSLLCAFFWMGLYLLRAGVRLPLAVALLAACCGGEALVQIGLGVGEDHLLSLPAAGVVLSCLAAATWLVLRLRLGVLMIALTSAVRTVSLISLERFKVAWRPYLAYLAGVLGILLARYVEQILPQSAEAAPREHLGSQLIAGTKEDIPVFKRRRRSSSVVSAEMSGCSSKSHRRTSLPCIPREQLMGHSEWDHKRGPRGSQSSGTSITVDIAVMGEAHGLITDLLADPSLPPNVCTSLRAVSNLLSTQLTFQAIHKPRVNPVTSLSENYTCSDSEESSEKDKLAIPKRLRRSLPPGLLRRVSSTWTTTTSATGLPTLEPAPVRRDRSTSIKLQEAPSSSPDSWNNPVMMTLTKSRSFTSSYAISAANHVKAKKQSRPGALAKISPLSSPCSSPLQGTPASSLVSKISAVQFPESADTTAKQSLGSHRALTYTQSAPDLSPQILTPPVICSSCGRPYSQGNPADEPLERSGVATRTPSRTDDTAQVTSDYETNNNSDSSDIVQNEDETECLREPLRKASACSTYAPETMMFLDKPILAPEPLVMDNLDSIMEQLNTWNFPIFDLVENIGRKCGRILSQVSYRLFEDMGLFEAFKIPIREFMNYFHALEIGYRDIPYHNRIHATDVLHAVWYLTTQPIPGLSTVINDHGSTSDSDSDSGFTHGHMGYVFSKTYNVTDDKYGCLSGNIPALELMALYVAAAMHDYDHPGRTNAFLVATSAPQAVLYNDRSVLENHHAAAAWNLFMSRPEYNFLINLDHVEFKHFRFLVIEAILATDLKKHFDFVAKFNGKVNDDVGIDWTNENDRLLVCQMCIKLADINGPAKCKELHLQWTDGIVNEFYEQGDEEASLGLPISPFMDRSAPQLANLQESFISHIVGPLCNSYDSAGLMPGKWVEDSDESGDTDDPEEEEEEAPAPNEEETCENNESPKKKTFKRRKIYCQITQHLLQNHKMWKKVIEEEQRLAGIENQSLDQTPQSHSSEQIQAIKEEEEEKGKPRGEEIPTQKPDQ
T3 sequence (Q13946 whole entry): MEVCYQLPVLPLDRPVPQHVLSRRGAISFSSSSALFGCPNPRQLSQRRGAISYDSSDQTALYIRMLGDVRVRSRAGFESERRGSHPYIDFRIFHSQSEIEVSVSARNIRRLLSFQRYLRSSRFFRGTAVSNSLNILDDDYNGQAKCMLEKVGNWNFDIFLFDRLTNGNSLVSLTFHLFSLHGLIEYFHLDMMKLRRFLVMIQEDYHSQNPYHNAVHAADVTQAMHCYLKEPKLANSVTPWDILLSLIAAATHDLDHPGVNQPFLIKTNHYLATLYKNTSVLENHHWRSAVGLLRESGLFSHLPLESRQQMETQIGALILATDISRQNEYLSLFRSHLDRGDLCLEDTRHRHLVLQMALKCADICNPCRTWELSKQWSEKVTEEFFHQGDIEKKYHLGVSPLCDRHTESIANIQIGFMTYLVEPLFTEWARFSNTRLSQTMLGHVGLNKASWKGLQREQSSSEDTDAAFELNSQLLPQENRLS

Turning to `CN(C)CCCNC(=O)c1cccc(-c2cc(Cl)c3c(c2)C2(CCCCC2)NC(=O)N3)c1`, the IC50 in [1] was over 84900 nM; in [2], 78100 nM; in experiment [3] it was 10 nM; in experiment [4], 1460 nM; in [5] it was 5160 nM.

In the case of `O=C1Nc2c(Cl)cc(-c3ccccc3)cc2C2(CCCCC2)N1`, the IC50 in [6] was 10 nM; in experiment [7] it was 3260 nM; in [8] it was 69800 nM; in experiment [9], over 101000 nM; in [10] it was 1420 nM.

On to `CN1CCN(C(=O)c2ccc(-c3cc(Cl)c4c(c3)C3(CCCCC3)NC(=O)N4)cc2)CC1`, for which the IC50 in [8] was 29300 nM; in experiment [2], 29300 nM; in experiment [3] it was 10 nM; in experiment [4], 1700 nM; in experiment [5], 7010 nM.

In turn, `O=C1Nc2ccc(Cl)cc2C2(CCCCC2)N1` returned an IC50 in experiment [6] of 4800 nM.

On to `Cc1cccc2c1NC(=O)NC21CCCCC1`, for which the IC50 in experiment [6] amounted to 790 nM.

In turn, `CCC1(CC)NC(=O)Nc2c(Br)cccc21` came in with an IC50 in experiment [6] of 6540 nM.

With `O=C1Nc2cc(Cl)c(Cl)cc2C2(CCCCC2)N1`, in [6], the IC50 came out at 3700 nM.

In [6], `O=C1Nc2c(I)cccc2C2(CCCCC2)N1` gave an IC50 of 6850 nM.

Molecule `O=C1Nc2ccc(-c3ccccc3)cc2C2(CCCCC2)N1` showed an IC50 in experiment [6] of 980 nM.

Molecule `O=C1Nc2c(Cl)cc(Cl)cc2C2(CCCCC2)N1` returned an IC50 in [6] of 120 nM.

With `COc1ccc2c(c1)C1(CCCCC1)NC(=O)N2`, in experiment [6], the IC50 is 3200 nM.

Consider `O=C1Nc2c(Br)cccc2C2(CCC2)N1`, for which the IC50 in experiment [6] was 1400 nM.

As to `O=C1Nc2c(Cl)cc(-c3cccnc3)cc2C2(CCCCC2)N1`, the IC50 in experiment [1] came to 19300 nM; in experiment [2], 14800 nM; in [3], 50 nM; in experiment [4] it was 1550 nM; in experiment [5] it was 2860 nM.

`COc1cc(Cl)c2c(c1)C1(CCCCC1)NC(=O)N2` showed an IC50 in [6] of 160 nM.

`O=C1Nc2ccccc2C2(CCCCC2)N1` came in with a half-inhibitory concentration (IC50) in experiment [6] of 6600 nM.

As to `O=C1Nc2cc(Cl)ccc2C2(CCCCC2)N1`, half-maximal inhibition in experiment [6] (IC50) required 2700 nM.

Regarding `O=C1Nc2c(Cl)cc(-c3ccncc3)cc2C2(CCCCC2)N1`, the IC50 was determined as 9470 nM in [1]; 11200 nM in experiment [2]; 30 nM in experiment [3]; 1010 nM in [4]; 3010 nM in experiment [5].

The molecule `O=C1Nc2c(C(F)(F)F)cccc2C2(CCCCC2)N1` gave a half-maximal inhibitory concentration (IC50) in experiment [6] of 2960 nM.

On to `NC(=O)c1ccc(-c2cc(Cl)c3c(c2)C2(CCCCC2)NC(=O)N3)cc1`, for which the IC50 in experiment [8] came to 11600 nM; in experiment [2] it was 280 nM; in [3], 20 nM; in experiment [10] it was 690 nM; in experiment [5], 1280 nM.

In the case of `O=C1Nc2c(Cl)cc(-c3ccc(C(=O)O)cc3)cc2C2(CCCCC2)N1`, the 50% inhibitory concentration (IC50) worked out at 8500 nM in experiment [1]; 21300 nM in [2]; 10 nM in [3]; 470 nM in [4]; 890 nM in experiment [5].

On to `O=C1Nc2c(Br)cccc2C2(CCCCC2)N1`, for which the IC50 in [6] came out at 60 nM.

As to `CN1CCN(C(=O)c2cccc(-c3cc(Cl)c4c(c3)C3(CCCCC3)NC(=O)N4)c2)CC1`, the IC50 was 40 nM in experiment [6]; 52400 nM in experiment [1]; 31600 nM in [2]; 1310 nM in [4]; 6390 nM in experiment [5].

`CC1CCC2(CC1)NC(=O)Nc1c(Br)cccc12` (configuration not stated) showed an IC50 in experiment [6] of 210 nM.

Regarding `CN1CCN(C(=O)c2ccccc2-c2cc(Cl)c3c(c2)C2(CCCCC2)NC(=O)N3)CC1`, the IC50 in experiment [1] was over 101000 nM; in experiment [2] it was over 92000 nM; in [3] it was 1520 nM; in experiment [4] it was 15700 nM; in experiment [5], 20100 nM.

For `Cc1cc(Cl)c2c(c1)C1(CCCCC1)NC(=O)N2`, in [6], the IC50 is 160 nM.

In experiment [6], `CCCC1(CCC)NC(=O)Nc2c(Br)cccc21` came in with an IC50 of 2660 nM.

Take `O=C1Nc2cccc(Cl)c2C2(CCCCC2)N1`: in experiment [6], the IC50 was found to be 840 nM.

For the molecule `O=C1Nc2c(Cl)cc(-c3ccccn3)cc2C2(CCCCC2)N1`, the IC50 in [1] was determined as 68400 nM; in [2], 45100 nM; in experiment [3], 30 nM; in experiment [4] it was 1800 nM; in experiment [5] it was 8300 nM.

In experiment [6], `O=C1Nc2ccc(Cl)c(Cl)c2C2(CCCCC2)N1` had an IC50 of 600 nM.

Molecule `O=C1Nc2c(F)cccc2C2(CCCCC2)N1` yielded a half-maximal inhibitory concentration (IC50) in experiment [6] of 390 nM.

For `CN(C)CCNC(=O)c1cccc(-c2cc(Cl)c3c(c2)C2(CCCCC2)NC(=O)N3)c1`, the IC50 in experiment [1] is over 101000 nM; in [2] it was over 79900 nM; in experiment [3], 20 nM; in experiment [4], 1590 nM; in experiment [5], 11600 nM.

In the case of `COc1ccc2c(c1)NC(=O)NC21CCCCC1`, 9500 nM corresponded to half-maximal inhibition in experiment [6] (IC50).

With `CN(C)CCNC(=O)c1ccc(-c2cc(Cl)c3c(c2)C2(CCCCC2)NC(=O)N3)cc1`, the IC50 in experiment [1] is over 67300 nM; in experiment [2], 42200 nM; in experiment [3], 20 nM; in [4], 1630 nM; in [5] it was 6290 nM.

In experiment [6], `O=C1Nc2c(Br)cccc2C2(CCCCCC2)N1` returned an IC50 of 60 nM.

As to `O=C1Nc2c(Cl)cc(-c3cccc(C(=O)O)c3)cc2C2(CCCCC2)N1`, the IC50 in [1] came out at 12600 nM; in experiment [2] it was 16700 nM; in experiment [3], 20 nM; in experiment [4], 740 nM; in experiment [5], 710 nM.

Regarding `CN(C)CCCNC(=O)c1ccc(-c2cc(Cl)c3c(c2)C2(CCCCC2)NC(=O)N3)cc1`, the half-inhibitory concentration (IC50) was over 50700 nM in experiment [1]; 44500 nM in experiment [2]; 20 nM in experiment [3]; 1500 nM in experiment [4]; 6470 nM in experiment [5].

As a reminder, the IC50 is the midpoint of a concentration-inhibition curve. High values mean weaker potency in that assay, low ones greater potency in that assay.
